Data on 1 substance can be found in US20050089471A1, “Labeled ligands for lectin-like oxidized low-density lipoprotein receptor (LOX-1)” (priority 2003, published 2005).

This experiment deals with human endothelial coronary artery cells (HCAECs) which are known in the literature to express LOX-1. Kind of experiment: Fluorescent confocal imaging of labeled peptide bound to HCAECs. The conditions noted are these: HCAECs grown in glass slides, fluorescent confocal microscope, FIG. 2. Format: cell-based. On the procedure:
Images in the assay may be acquired using a laser confocal microscope or an Imager. For example, images of peptides bound to cells can be obtained using a laser confocal microscope as follows: HCAE cells can be grown on high quality borosilicate 8-chambered glass slides (Electron Microscopy Sciences, Fort Washington, Pa.). Then, about 10 μL of 1 mg/ml of an aqueous solution of a labeled peptide can be added to the cells and incubated for 1 hour. Subsequently, the cells preferably are washed with HBSS buffer three times. The cells then can be fixed with 4% formaldehyde solution over 10 minutes. After a final wash with buffer, the slide is imaged. Images preferably are acquired using an OLYMPUS laser scanning confocal microscope, model Fluoview 300, using Ar-ion laser (selecting 488 nm line) and a 510-nm long-pass filter. Images can be acquired using two channels: reflected light and fluorescent mode channel, or an overlay of both channels.
The experimental conditions for imaging the peptide-labeled HCAECs are described previously.

Where no end group is shown, it is not given here. fluorescein = fluorescein (Fl)

On to “Fl-KKGG-FQTPPQL (fluorescein-KKGGFQTPPQL) [peptide FQTPPQL conjugated with fluorescein via KKGG linker]”, for which the “binding to / localization on HCAECs (fluorescent image)” value is reported as “shown to bind”.
